Active and inactive are the calls of the source.
What was measured:
Keap1/Nrf2 = Keap1/Nrf2 (Homo sapiens, UniProt Q14145); test: Keap1-Nrf2 protein-protein interaction inhibitors, dose response, biochemical, fluorescence polarization, cherry-picked samples (AID 588683)
[1] = biological target: High affinity nerve growth factor receptor (Homo sapiens, UniProt P04629); format: functional;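 further: NTRK1 tested as one member of a kinome-wide profiling panel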
[2] = biological target: Proto-oncogene tyrosine-protein kinase receptor Ret (Homo sapiens, UniProt P07949); format: functional;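 further: measured within a kinome-wide profiling panel, RET as the panel member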
Proto-oncogene tyrosine-protein kinase receptor Ret, sequence (P07949 whole entry): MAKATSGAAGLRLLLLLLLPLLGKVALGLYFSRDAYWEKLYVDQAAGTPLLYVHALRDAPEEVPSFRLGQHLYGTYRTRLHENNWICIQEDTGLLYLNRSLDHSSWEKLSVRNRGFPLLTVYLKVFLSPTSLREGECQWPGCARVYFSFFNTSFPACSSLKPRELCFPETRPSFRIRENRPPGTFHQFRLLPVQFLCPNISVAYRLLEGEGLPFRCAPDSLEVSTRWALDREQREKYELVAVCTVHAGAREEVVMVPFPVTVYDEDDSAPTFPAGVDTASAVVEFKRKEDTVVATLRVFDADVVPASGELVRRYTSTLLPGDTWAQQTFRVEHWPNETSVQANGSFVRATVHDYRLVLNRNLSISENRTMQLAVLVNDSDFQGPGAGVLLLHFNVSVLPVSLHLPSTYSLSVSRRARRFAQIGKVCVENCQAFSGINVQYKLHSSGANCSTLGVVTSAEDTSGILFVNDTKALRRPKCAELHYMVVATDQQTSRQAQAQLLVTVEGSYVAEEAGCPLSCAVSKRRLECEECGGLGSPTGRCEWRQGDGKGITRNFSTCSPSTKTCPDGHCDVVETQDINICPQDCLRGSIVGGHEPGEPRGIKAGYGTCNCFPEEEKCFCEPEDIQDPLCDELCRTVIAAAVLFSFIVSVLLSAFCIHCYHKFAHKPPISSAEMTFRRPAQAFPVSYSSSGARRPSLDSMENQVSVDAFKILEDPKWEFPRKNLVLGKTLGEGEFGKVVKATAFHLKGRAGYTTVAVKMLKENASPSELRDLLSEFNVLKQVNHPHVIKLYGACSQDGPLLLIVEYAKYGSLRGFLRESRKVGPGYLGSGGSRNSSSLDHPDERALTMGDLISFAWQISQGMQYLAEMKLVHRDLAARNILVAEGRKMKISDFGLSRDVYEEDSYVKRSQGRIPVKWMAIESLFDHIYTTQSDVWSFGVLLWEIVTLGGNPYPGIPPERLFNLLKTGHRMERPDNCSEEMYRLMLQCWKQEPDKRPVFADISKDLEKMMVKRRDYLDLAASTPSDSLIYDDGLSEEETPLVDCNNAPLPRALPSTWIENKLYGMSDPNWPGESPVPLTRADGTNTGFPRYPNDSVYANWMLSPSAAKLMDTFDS

[3] = biological target: Serine/threonine-protein kinase pim-1 (Homo sapiens, UniProt P11309); format: functional
Serine/threonine-protein kinase pim-1, sequence (P11309 whole entry): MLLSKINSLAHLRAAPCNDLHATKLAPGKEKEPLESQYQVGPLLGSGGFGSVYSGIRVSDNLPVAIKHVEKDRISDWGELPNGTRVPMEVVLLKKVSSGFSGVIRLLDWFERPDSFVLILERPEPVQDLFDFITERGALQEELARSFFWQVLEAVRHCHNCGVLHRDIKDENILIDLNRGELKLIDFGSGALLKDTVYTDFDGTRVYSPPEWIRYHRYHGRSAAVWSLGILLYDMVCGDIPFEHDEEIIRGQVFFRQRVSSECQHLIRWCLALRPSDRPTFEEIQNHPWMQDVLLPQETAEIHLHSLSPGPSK

[4] = biological target: Hepatocyte growth factor receptor (Homo sapiens, UniProt P08581); format: functional;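 further: kinase panel profiling across the kinome, with MET as the panel member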
Hepatocyte growth factor receptor, sequence (P08581 whole entry): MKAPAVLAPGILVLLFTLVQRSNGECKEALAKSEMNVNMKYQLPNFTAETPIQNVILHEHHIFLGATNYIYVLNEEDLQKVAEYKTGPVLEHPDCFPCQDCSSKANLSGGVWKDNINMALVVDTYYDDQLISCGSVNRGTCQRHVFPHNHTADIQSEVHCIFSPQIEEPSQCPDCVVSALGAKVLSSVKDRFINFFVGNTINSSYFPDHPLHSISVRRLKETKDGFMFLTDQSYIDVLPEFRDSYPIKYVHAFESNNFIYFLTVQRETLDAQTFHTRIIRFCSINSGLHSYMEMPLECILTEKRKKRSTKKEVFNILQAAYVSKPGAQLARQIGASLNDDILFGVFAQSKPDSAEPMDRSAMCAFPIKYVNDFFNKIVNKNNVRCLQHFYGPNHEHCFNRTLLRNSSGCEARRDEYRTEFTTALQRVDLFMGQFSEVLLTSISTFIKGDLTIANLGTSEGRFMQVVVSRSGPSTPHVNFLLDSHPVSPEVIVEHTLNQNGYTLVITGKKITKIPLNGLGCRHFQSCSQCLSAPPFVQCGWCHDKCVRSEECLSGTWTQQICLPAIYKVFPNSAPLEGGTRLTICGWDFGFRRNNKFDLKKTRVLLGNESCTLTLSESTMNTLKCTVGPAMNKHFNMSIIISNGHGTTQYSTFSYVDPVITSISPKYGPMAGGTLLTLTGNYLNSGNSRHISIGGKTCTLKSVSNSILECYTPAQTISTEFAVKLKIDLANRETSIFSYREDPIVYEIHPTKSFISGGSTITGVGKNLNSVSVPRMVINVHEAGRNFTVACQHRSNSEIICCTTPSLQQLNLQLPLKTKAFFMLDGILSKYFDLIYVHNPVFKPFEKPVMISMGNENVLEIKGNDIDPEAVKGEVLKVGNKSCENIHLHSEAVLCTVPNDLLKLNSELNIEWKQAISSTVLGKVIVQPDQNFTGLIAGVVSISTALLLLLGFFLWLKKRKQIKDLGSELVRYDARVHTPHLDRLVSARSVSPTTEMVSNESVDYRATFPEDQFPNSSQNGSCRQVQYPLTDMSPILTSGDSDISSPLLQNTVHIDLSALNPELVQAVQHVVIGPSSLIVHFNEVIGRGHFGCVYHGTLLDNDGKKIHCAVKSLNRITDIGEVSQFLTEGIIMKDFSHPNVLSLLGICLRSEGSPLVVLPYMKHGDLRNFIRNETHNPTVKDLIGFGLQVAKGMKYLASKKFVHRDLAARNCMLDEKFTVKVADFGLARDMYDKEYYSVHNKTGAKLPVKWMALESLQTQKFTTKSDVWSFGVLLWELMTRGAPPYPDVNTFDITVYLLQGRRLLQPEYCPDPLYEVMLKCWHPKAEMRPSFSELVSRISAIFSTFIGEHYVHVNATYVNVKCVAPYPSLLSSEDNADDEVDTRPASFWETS

SUMO-activating enzyme = SUMO-activating enzyme (Homo sapiens, UniProt Q9UBT2); test: SUMOylation inhibitor hit validation, confirmation, SUMOylation inhibitor project, biochemical, AlphaScreen (AID 2018); format: functional
SUMO-activating enzyme, sequence (Q9UBE0 whole entry): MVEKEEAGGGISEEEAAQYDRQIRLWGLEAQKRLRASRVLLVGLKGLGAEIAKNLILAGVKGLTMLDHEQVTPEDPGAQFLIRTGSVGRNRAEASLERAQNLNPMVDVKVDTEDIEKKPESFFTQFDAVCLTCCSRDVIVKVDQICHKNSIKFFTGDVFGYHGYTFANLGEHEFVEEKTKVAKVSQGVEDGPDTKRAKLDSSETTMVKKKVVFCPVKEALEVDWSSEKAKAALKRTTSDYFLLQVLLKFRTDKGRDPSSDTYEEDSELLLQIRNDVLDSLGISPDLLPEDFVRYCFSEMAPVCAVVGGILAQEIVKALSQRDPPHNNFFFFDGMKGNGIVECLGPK
SUMO-activating enzyme, sequence (Q9UBT2 whole entry): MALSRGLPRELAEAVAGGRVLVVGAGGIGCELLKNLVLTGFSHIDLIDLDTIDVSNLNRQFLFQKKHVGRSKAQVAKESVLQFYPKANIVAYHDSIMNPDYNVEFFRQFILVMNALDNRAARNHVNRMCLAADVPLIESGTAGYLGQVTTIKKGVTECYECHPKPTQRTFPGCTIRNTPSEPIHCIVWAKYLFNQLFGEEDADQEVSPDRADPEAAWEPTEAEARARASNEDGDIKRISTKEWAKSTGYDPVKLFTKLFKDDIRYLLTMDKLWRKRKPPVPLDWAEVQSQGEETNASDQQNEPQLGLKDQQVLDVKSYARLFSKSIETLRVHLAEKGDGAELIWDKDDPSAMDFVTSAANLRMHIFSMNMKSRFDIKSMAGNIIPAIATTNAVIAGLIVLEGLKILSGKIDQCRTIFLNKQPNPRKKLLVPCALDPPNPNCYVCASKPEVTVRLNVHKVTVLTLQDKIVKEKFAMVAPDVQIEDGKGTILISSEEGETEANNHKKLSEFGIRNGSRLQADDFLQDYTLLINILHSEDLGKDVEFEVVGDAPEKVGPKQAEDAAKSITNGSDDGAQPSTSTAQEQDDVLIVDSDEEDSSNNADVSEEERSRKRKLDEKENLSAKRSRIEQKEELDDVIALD

Keap1/Nrf2, sequence (Q16236 whole entry): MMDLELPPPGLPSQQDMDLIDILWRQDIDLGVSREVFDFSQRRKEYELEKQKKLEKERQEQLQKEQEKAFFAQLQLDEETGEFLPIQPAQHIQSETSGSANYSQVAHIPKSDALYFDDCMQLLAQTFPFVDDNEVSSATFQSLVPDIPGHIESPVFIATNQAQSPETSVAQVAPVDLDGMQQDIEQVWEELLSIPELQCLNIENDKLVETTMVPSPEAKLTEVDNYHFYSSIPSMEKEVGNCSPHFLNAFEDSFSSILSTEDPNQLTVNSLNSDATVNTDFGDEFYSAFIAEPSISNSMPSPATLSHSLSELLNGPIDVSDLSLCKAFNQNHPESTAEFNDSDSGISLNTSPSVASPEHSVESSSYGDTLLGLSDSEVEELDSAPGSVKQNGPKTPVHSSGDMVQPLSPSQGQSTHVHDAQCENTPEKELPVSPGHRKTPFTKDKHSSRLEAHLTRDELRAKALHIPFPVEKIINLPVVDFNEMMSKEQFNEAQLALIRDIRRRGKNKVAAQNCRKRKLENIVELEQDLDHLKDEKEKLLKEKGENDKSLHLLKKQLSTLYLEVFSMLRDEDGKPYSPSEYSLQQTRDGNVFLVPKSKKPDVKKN
Keap1/Nrf2, sequence (Q14145 whole entry): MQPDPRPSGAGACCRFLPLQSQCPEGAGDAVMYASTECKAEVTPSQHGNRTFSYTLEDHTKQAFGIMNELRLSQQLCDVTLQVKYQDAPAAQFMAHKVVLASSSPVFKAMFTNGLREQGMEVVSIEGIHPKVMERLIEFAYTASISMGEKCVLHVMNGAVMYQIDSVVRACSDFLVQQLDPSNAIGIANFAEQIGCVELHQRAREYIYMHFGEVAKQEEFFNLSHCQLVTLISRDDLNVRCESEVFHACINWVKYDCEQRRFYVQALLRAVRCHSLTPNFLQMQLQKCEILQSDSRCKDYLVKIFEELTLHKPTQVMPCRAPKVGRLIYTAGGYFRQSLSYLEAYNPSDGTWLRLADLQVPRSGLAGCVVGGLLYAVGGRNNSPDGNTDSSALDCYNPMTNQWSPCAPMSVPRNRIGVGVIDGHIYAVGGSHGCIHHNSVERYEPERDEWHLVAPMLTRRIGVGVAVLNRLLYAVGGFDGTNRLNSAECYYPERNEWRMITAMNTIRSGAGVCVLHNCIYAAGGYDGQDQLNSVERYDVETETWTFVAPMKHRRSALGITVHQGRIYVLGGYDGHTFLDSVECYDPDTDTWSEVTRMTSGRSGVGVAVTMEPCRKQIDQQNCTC

O=C(O)C1Nc2c(O)cc(Cl)c([N+](=O)[O-])c2C2C=CCC12 (stereo unspecified)
AC50 (Keap1/Nrf2): > 52000 nM (inactive)

Cc1n[nH]c2ccc(-c3cncc(OCC(N)Cc4cccc(Cl)c4)c3)cc12 (stereo unspecified)
Ki [1]: > 2510 nM (inactive) | Ki [2]: 1000 nM (active) | Ki [3]: 5.01 nM (active) | Ki [4]: > 3160 nM (inactive)

CC(=O)NC1C(=O)N(CCN2CCOCC2)c2ccc(F)cc21 (stereo unspecified)
IC50 (SUMO-activating enzyme): 5820 nM (active)

From ChEMBL document CHEMBL1201862, “PubChem BioAssay data set” (2004)
